These results are taken from patent US5132216A, “Microbial transformation process for antihypertensive products” (Merck & Co., Inc., priority 1991, dated 1992).

This assay concerns the target T1, Angiotensin II (A II) receptor (Oryctolagus cuniculus, UniProt P34976).
T1 sequence (P34976 1-359): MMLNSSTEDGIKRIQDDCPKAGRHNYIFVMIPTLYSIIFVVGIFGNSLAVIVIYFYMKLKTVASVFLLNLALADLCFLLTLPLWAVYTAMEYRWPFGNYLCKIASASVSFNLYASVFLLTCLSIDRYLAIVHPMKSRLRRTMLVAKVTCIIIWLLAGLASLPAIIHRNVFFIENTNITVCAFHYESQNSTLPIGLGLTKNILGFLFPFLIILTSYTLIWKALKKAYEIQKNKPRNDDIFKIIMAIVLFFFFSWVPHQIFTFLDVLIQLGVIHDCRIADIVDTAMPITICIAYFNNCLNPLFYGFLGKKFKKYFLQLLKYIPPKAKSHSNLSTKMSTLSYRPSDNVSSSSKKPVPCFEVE
Briefly: Receptor binding assay using rabbit aortae membrane preparation (125I-Sar1Ile8-angiotensin II displacement, "IC50" assay). The method, then:
This assay is also referred to herein as the "IC50 " assay.
Receptor binding assay using rabbit aortae membrane preparation
Three frozen rabbit aortae (obtained from Pel-Freeze Biologicals) were suspended in 5 mM Tris-0.25M Sucrose, pH 7.4 buffer (50 ml) homogenized, and then centifuged. The mixture was filtered through a cheesecloth and the supernatant was centrifuged for 30 minutes at 20,000 rpm at 4° C. The pellet thus obtained was resuspended in 30 ml of 50 mM Tris-5 mM MgCl2 buffer containing 0.2% Bovine Serum Albumin and 0.2 mg/ml Bacitration and the suspension was used for 100 assay tubes. Samples tested for screening were done in duplicate. To the membrane preparation (0.25 ml) there was added ^125 I-Sar^1 Ile^8 -angiotensin II [obtained from New England Nuclear] (10 ul; 20,000 cpm) with or without the test sample and the mixture was incubated at 37° C. for 90 minutes. The mixture was then diluted with ice-cold 50 mM Tris-0.9% NaCl, pH 7.4 (4 ml) and filtered through a glass fiber filter (GF/B Whatman 2.4" diameter). The filter was soaked in scintillation cocktail (10 ml) and counted for radioactivity using Packard 2660 Tricarb liquid scintillation counter. […]

For the compound `Cc1cc(CO)nc2c1nc(C(C)O)n2Cc1ccc(-c2ccccc2-c2nnn[nH]2)cc1` (stereo not shown) [compound (IV)], the “A II antagonist activity by the IC50 assay” value is listed as “exhibit A II antagonist activity”.
